Data on 17 compounds can be found in patent US10577363B2, “Substituted piperidine compounds” (EPIZYME, INC., priority 2014, dated 2020).

pIC50: −log10 of the molar value. Some results are limits rather than exact numbers.

Experiment [1] deals with T1, SMYD3 (Homo sapiens (Human), UniProt Q9H7B4). The experiment in a line: SMYD3 biochemical assay (SPA, 3H-SAM methylation of MEKK2 protein substrate). Conditions: read-out: SMYD3 Biochem IC50*. In a few lines: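 Methylation of N-terminally GST-tagged MEKK2 by untagged full-length human SMYD3, using 3H-SAM, in pH 8.0 Tris buffer with TCEP, BSG and Tween 20; enzyme and compound sat 30 min at room temperature before substrate addition. Stopped with 100 uM (final) cold SAM; incorporation read by scintillation proximity as dpm/cpm.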

Experiment [2] concerns the target T1, SMYD3. Nature of the experiment: SMYD3 cell assay (Trimethyl-MEKK2 In-Cell Western in 293T/17 cells). The class given is cell-based. Conditions: read-out: SMYD3 Cell IC50*. The essentials: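 In-Cell Western readout: methanol-fixed cells stained for trimethyl-MEKK2 and flag tag, ratio per well normalized to DMSO and background controls.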

T1 sequence (Q9H7B4 whole entry): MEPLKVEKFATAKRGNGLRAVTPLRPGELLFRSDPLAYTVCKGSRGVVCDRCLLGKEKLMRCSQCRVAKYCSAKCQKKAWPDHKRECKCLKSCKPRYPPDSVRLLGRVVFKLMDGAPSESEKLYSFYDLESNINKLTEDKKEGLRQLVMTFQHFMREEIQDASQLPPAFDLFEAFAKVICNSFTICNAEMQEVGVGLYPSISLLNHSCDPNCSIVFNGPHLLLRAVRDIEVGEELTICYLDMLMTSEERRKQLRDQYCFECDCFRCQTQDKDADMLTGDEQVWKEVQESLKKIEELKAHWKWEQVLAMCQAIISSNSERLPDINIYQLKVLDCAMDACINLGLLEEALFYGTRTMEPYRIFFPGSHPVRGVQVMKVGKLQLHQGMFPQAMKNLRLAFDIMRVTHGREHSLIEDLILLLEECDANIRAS

Take `C[C@H]1CN(S(=O)(=O)N2[C@@H]3CC[C@H]2C[C@@H](NC(=O)c2cc(C4CC4)on2)C3)[C@@H](C)CN1` [compound 915, 5-cyclopropyl-N-((1R,3S,5S)-8-(((2S,5S)-2,5-dimethylpiperazin-1-yl)sulfonyl)-8-azabicyclo[3.2.1]octan-3-yl)isoxazole-3-carboxamide]: the pIC50 on SMYD3 [1] is 7.63; on SMYD3 [2] it was 6.64.

Turning to `COCCN(C)C1CCN(S(=O)(=O)N2[C@@H]3CC[C@H]2C[C@@H](NC(=O)c2cc(C4CC4)on2)C3)CC1` [compound 916, 5-cyclopropyl-N-((1R,3r,5S)-8-((4-((2-methoxyethyl)(methyl)amino)piperidin-1-yl)sulfonyl)-8-azabicyclo[3.2.1]octan-3-yl)isoxazole-3-carboxamide], the pIC50 on SMYD3 [1] is 7.63; at SMYD3 [2], 6.61.

For `CN(CCN1CCCC1)C1CCN(S(=O)(=O)N2[C@@H]3CC[C@H]2C[C@@H](NC(=O)c2cc(C4CC4)on2)C3)CC1` [compound 917, 5-cyclopropyl-N-((1R,3r,5S)-8-((4-(methyl(2-(pyrrolidin-1-yl)ethyl)amino)piperidin-1-yl)sulfonyl)-8-azabicyclo[3.2.1]octan-3-yl)isoxazole-3-carboxamide], the negative logarithm of the IC50 (pIC50) at SMYD3 [1] was 7.60; on SMYD3 [2] it was 6.42.

In the case of `O=C(N[C@H]1C[C@H]2CC[C@@H](C1)N2S(=O)(=O)N1CCC(NCCC(F)(F)F)CC1)c1cc(C2CC2)on1` [compound 918, 5-cyclopropyl-N-((1R,3r,5S)-8-((4-((3,3,3-trifluoropropyl)amino)piperidin-1-yl)sulfonyl)-8-azabicyclo[3.2.1]octan-3-yl)isoxazole-3-carboxamide], the negative logarithm of the IC50 (pIC50) is 7.60 at SMYD3 [1] and 6.83 on SMYD3 [2].

`O=C(N[C@H]1C[C@H]2CC[C@@H](C1)N2S(=O)(=O)C[C@@H]1CCCCN1)c1cc(C2CC2)on1` [compound 919, 5-cyclopropyl-N-((1R,3S,5S)-8-((((S)-piperidin-2-yl)methyl)sulfonyl)-8-azabicyclo[3.2.1]octan-3-yl)isoxazole-3-carboxamide]: the pIC50 is 7.60 at SMYD3 [1] and 6.62 at SMYD3 [2].

Regarding `O=C(N[C@H]1C[C@H]2CC[C@@H](C1)N2S(=O)(=O)[C@H]1CC[C@@H](NCCN2CCOCC2)CC1)c1cc(C2CC2)on1` [compound 920, 5-cyclopropyl-N-((1R,3R,5S)-8-(((1s,4S)-4-((2-morpholinoethyl)amino)cyclohexyl)sulfonyl)-8-azabicyclo[3.2.1]octan-3-yl)isoxazole-3-carboxamide], the pIC50 on SMYD3 [1] is 7.58; on SMYD3 [2] it was 6.30.

In the case of `CN(CCO)C1CCN(CCS(=O)(=O)N2[C@@H]3CC[C@H]2C[C@@H](NC(=O)c2cc(C4CC4)on2)C3)C1` (stereo partly drawn) [compound 921, 5-cyclopropyl-N-((1R,3r,5S)-8-((2-(3-((2-hydroxyethyl)(methyl)amino)pyrrolidin-1-yl)ethyl)sulfonyl)-8-azabicyclo[3.2.1]octan-3-yl)isoxazole-3-carboxamide], the values for the pIC50 at SMYD3 [1] and at SMYD3 [2] were 7.56 and 6.43, respectively.

As for `O=C(N[C@H]1C[C@H]2CC[C@@H](C1)N2S(=O)(=O)N1CCC(NCCN2CCCC2)CC1)c1cc(C2CC2)on1` [compound 922, 5-cyclopropyl-N-((1R,3r,5S)-8-((4-((2-(pyrrolidin-1-yl)ethyl)amino)piperidin-1-yl)sulfonyl)-8-azabicyclo[3.2.1]octan-3-yl)isoxazole-3-carboxamide], the pIC50 is 7.55 on SMYD3 [1] and 6.55 on SMYD3 [2].

With `C[C@@H](NC1CCN(S(=O)(=O)N2[C@@H]3CC[C@H]2C[C@@H](NC(=O)c2cc(C4CC4)on2)C3)CC1)c1ccccc1` [compound 923, 5-cyclopropyl-N-((1R,3R,5S)-8-((4-(((R)-1-phenylethyl)amino)piperidin-1-yl)sulfonyl)-8-azabicyclo[3.2.1]octan-3-yl)isoxazole-3-carboxamide], the results for the pIC50 at SMYD3 [1] and on SMYD3 [2] were 7.54 and 6.51, respectively.

With `O=C(N[C@H]1C[C@H]2CC[C@@H](C1)N2S(=O)(=O)N1CCC(NCc2c(F)cccc2F)CC1)c1cc(C2CC2)on1` [compound 924, 5-cyclopropyl-N-((1R,3r,5S)-8-((4-((2,6-difluorobenzyl)amino)piperidin-1-yl)sulfonyl)-8-azabicyclo[3.2.1]octan-3-yl)isoxazole-3-carboxamide], the pIC50 on SMYD3 [1] was 7.54; at SMYD3 [2], 6.17.

As to `CC(C)C1CN(S(=O)(=O)N2[C@@H]3CC[C@H]2C[C@@H](NC(=O)c2cc(C4CC4)on2)C3)CCN1` (stereo partly drawn) [compound 925, 5-cyclopropyl-N-((1R,3r,5S)-8-((3-isopropylpiperazin-1-yl)sulfonyl)-8-azabicyclo[3.2.1]octan-3-yl)isoxazole-3-carboxamide], the pIC50 at SMYD3 [1] was 7.52; on SMYD3 [2], 6.47.

With `CN1CCC[C@@H](S(=O)(=O)N2[C@@H]3CC[C@H]2C[C@@H](NC(=O)c2cc(C4CC4)on2)C3)C1` [compound 926, 5-cyclopropyl-N-((1R,3R,5S)-8-(((R)-1-methylpiperidin-3-yl)sulfonyl)-8-azabicyclo[3.2.1]octan-3-yl)isoxazole-3-carboxamide], the pIC50 on SMYD3 [1] was 7.52; at SMYD3 [2], 6.68.

As to `C[C@H](NC1CCN(S(=O)(=O)N2[C@@H]3CC[C@H]2C[C@@H](NC(=O)c2cc(C4CC4)on2)C3)CC1)c1ccccc1` [compound 927, 5-cyclopropyl-N-((1R,3S,5S)-8-((4-(((S)-1-phenylethyl)amino)piperidin-1-yl)sulfonyl)-8-azabicyclo[3.2.1]octan-3-yl)isoxazole-3-carboxamide], the pIC50 is 7.51 at SMYD3 [1] and 6.39 at SMYD3 [2].

In the case of `CC(C)NC1CCN(S(=O)(=O)N2[C@@H]3CC[C@H]2C[C@@H](NC(=O)c2cc(C4CC4)on2)C3)CC1` [compound 928, 5-cyclopropyl-N-((1R,3r,5S)-8-((4-(isopropylamino)piperidin-1-yl)sulfonyl)-8-azabicyclo[3.2.1]octan-3-yl)isoxazole-3-carboxamide], the pIC50 on SMYD3 [1] was 7.44; at SMYD3 [2], 6.29.

For the compound `NCc1ccc(S(=O)(=O)N2[C@@H]3CC[C@H]2C[C@@H](NC(=O)c2cc(C4CC4)on2)C3)cc1` [compound 929, N-((1R,3r,5S)-8-((4-(aminomethyl)phenyl)sulfonyl)-8-azabicyclo[3.2.1]octan-3-yl)-5-cyclopropylisoxazole-3-carboxamide], the pIC50 was 7.43 on SMYD3 [1] and ≤ 5.00 at SMYD3 [2].

Take `O=C(N[C@H]1C[C@H]2CC[C@@H](C1)N2S(=O)(=O)C[C@@H]1CCCN1)c1cc(C2CC2)on1` [compound 930, 5-cyclopropyl-N-((1R,3S,5S)-8-((((S)-pyrrolidin-2-yl)methyl)sulfonyl)-8-azabicyclo[3.2.1]octan-3-yl)isoxazole-3-carboxamide]: the results for the pIC50 at SMYD3 [1] and at SMYD3 [2] were 7.43 and 6.45, respectively.

With `C[C@H](N)c1ccc(S(=O)(=O)N2[C@@H]3CC[C@H]2C[C@@H](NC(=O)c2cc(C4CC4)on2)C3)cc1` [compound 931, N-((1R,3S,5S)-8-((4-((S)-1-aminoethyl)phenyl)sulfonyl)-8-azabicyclo[3.2.1]octan-3-yl)-5-cyclopropylisoxazole-3-carboxamide], the negative-log IC50 (pIC50) at SMYD3 [1] was 7.43; at SMYD3 [2] it was 6.28.

One may read the pIC50 as the negative decadic logarithm of the IC50, by convention in mol/L.
